Source: patent publication US11795460B2, “Compositions and methods for TTR gene editing and treating ATTR amyloidosis” (Intellia Therapeutics, Inc., priority 2017, dated 2023)

Key:
Format in all cases: cell-based, human
[1] = system: TTR; assay: TTR editing in HUH7 cells transfected with Spy Cas9 mRNA and dgRNAs (Table 5); conditions: HUH7 cells co-transfected with Spy Cas9 mRNA (SEQ ID NO:2) and dgRNAs
How it was run: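 Percent editing is the share of NGS reads at the TTR target carrying insertions, deletions or substitutions, from amplicon sequencing of genomic DNA harvested at 24, 48 or 72 h. HUH7 cells first received Cas9 mRNA (100 ng) by lipofection, then dual-guide RNA (crRNA and tracer, 25 nM each).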

[2] = system: TTR; assay: TTR editing in HepG2 cells transfected with Spy Cas9 mRNA and dgRNAs (Table 6); conditions: HepG2 cells co-transfected with Spy Cas9 mRNA (SEQ ID NO:2) and dgRNAs
How it was run: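 Percent editing is the share of sequencing reads at the TTR target locus that carry insertions, deletions or substitutions, measured by Illumina amplicon sequencing aligned to hg38. Samples came from HepG2 cells lipofected first with 100 ng Cas9 mRNA and then with dual-guide RNA (25 nM crRNA/tracer), collected 24–72 h later.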

[3] = system: off-target genomic sites; assay: Off-target oligo insertion based assay in HEK293_Cas9 cells, dgRNAs and sgRNAs (Tables 23, 24); conditions: Table 23; TTR dgRNAs in HekCas9 cells, oligo insertion based assay
How it was run: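 In HEK293 cells constitutively expressing Spy Cas9, crRNA (15 nM) plus trRNA (15 nM), or modified sgRNAs, were lipofected with donor oligo (10 nM). Genomic DNA was collected at 24 h, and oligo-insertion libraries were sequenced on MiSeq/HiSeq to map potential off-target cleavage sites.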

CUCUGCAUGCUCAUGGAAUG (tested as dual guide RNA, chemistry not given here) [CR003369]
Avg % Deletion [1]: 17.38% | Avg % Edit [1]: 24.19% | Avg % Insert [1]: 7.12% | Avg % Deletion [2]: 5.51% | Avg % Edit [2]: 22.62% | Avg % Insert [2]: 17.11% | # Sites (off-target integration sites detected) [3]: 2

GGAGUAGGGGCUCAGCAGGG (tested as dual guide RNA, chemistry not given here) [CR003382]
Avg % Deletion [1]: 34.47% | Avg % Edit [1]: 34.47% | Avg % Insert [1]: 0.14% | Avg % Deletion [2]: 0.15% | Avg % Edit [2]: 1.73% | Avg % Insert [2]: 1.58% | # Sites (off-target integration sites detected) [3]: 34

ACACAAAUACCAGUCCAGCA (tested as dual guide RNA, chemistry not given here) [CR003339]
Avg % Deletion [1]: 20.13% | Avg % Edit [1]: 79.97% | Avg % Insert [1]: 60.55% | Avg % Deletion [2]: 55.84% | Avg % Edit [2]: 68.21% | Avg % Insert [2]: 12.37% | # Sites (off-target integration sites detected) [3]: 3

ACUGAGGAGGAAUUUGUAGA (tested as dual guide RNA, chemistry not given here) [CR003363]
Avg % Deletion [1]: 23.78% | Avg % Edit [1]: 41.01% | Avg % Insert [1]: 17.83% | Avg % Deletion [2]: 14.07% | Avg % Edit [2]: 42.65% | Avg % Insert [2]: 28.58% | # Sites (off-target integration sites detected) [3]: 4

GCGGCAAUGGUGUAGCGGCG (tested as dual guide RNA, chemistry not given here) [CR003377]
Avg % Deletion [1]: 29.89% | Avg % Edit [1]: 34.93% | Avg % Insert [1]: 5.59% | Avg % Deletion [2]: 1.02% | Avg % Edit [2]: 16.30% | Avg % Insert [2]: 15.29% | # Sites (off-target integration sites detected) [3]: 0

UUCUUUGGCAACUUACCCAG (tested as dual guide RNA, chemistry not given here) [CR003357]
Avg % Deletion [1]: 30.82% | Avg % Edit [1]: 36.31% | Avg % Insert [1]: 6.37% | Avg % Deletion [2]: 3.46% | Avg % Edit [2]: 45.83% | Avg % Insert [2]: 42.37% | # Sites (off-target integration sites detected) [3]: 3

UCUAGAACUUUGACCAUCAG (tested as dual guide RNA, chemistry not given here) [CR003345]
Avg % Deletion [1]: 32.18% | Avg % Edit [1]: 72.43% | Avg % Insert [1]: 41.33% | Avg % Deletion [2]: 4.45% | Avg % Edit [2]: 10.58% | Avg % Insert [2]: 6.12% | # Sites (off-target integration sites detected) [3]: 0

CCAGUCCAGCAAGGCAGAGG (tested as dual guide RNA, chemistry not given here) [CR003337]
Avg % Deletion [1]: 48.95% | Avg % Edit [1]: 55.72% | Avg % Insert [1]: 8.34% | Avg % Deletion [2]: 2.65% | Avg % Edit [2]: 61.93% | Avg % Insert [2]: 59.28% | # Sites (off-target integration sites detected) [3]: 10

GCAGGGCGGCAAUGGUGUAG (tested as dual guide RNA, chemistry not given here) [CR003380]
Avg % Deletion [1]: 29.29% | Avg % Edit [1]: 31.76% | Avg % Insert [1]: 3.29% | Avg % Deletion [2]: 2.30% | Avg % Edit [2]: 17.08% | Avg % Insert [2]: 14.78% | # Sites (off-target integration sites detected) [3]: 0

GACGACAGCCGUGGUGGAAU (tested as dual guide RNA, chemistry not given here) [CR003388]
Avg % Deletion [1]: 56.45% | Avg % Edit [1]: 59.48% | Avg % Insert [1]: 3.88% | Avg % Deletion [2]: 1.56% | Avg % Edit [2]: 9.33% | Avg % Insert [2]: 7.76% | # Sites (off-target integration sites detected) [3]: 2

CAUUGAUGGCAGGACUGCCU (tested as dual guide RNA, chemistry not given here) [CR003347]
Avg % Deletion [1]: 30.79% | Avg % Edit [1]: 32.16% | Avg % Insert [1]: 1.64% | Avg % Deletion [2]: 1.49% | Avg % Edit [2]: 22.57% | Avg % Insert [2]: 21.08% | # Sites (off-target integration sites detected) [3]: 1

AGGCAGUCCUGCCAUCAAUG (tested as dual guide RNA, chemistry not given here) [CR003348]
Avg % Deletion [1]: 22.71% | Avg % Edit [1]: 57.14% | Avg % Insert [1]: 36.08% | Avg % Deletion [2]: 21.40% | Avg % Edit [2]: 38.44% | Avg % Insert [2]: 17.04% | # Sites (off-target integration sites detected) [3]: 3

AGACACCAAAUCUUACUGGA (tested as dual guide RNA, chemistry not given here) [CR003367]
Avg % Deletion [1]: 33.48% | Avg % Edit [1]: 66.29% | Avg % Insert [1]: 33.62% | Avg % Deletion [2]: 21.27% | Avg % Edit [2]: 45.55% | Avg % Insert [2]: 24.28% | # Sites (off-target integration sites detected) [3]: 1

GCAACUUACCCAGAGGCAAA (tested as dual guide RNA, chemistry not given here) [CR003356]
Avg % Deletion [1]: 31.31% | Avg % Edit [1]: 49.63% | Avg % Insert [1]: 18.98% | Avg % Deletion [2]: 3.72% | Avg % Edit [2]: 9.39% | Avg % Insert [2]: 5.67% | # Sites (off-target integration sites detected) [3]: 4

AUAGGAGUAGGGGCUCAGCA (tested as dual guide RNA, chemistry not given here) [CR003383]
Avg % Deletion [1]: 41.19% | Avg % Edit [1]: 42.89% | Avg % Insert [1]: 2.14% | Avg % Deletion [2]: 0.16% | Avg % Edit [2]: 6.35% | Avg % Insert [2]: 6.19% | # Sites (off-target integration sites detected) [3]: 1

GGCUGUCGUCACCAAUCCCA (tested as dual guide RNA, chemistry not given here) [CR003391]
Avg % Deletion [1]: 59.70% | Avg % Edit [1]: 61.31% | Avg % Insert [1]: 2.10% | Avg % Deletion [2]: 0.50% | Avg % Edit [2]: 48.78% | Avg % Insert [2]: 48.28% | # Sites (off-target integration sites detected) [3]: 0

UGGACUGGUAUUUGUGUCUG (tested as dual guide RNA, chemistry not given here) [CR003340]
Avg % Deletion [1]: 14.23% | Avg % Edit [1]: 46.93% | Avg % Insert [1]: 33.33% | Avg % Deletion [2]: 31.65% | Avg % Edit [2]: 37.76% | Avg % Insert [2]: 6.12% | # Sites (off-target integration sites detected) [3]: 0

CAGAGGACACUUGGAUUCAC (tested as dual guide RNA, chemistry not given here) [CR003343]
Avg % Deletion [1]: 66.97% | Avg % Edit [1]: 76.13% | Avg % Insert [1]: 9.58% | Avg % Deletion [2]: 5.36% | Avg % Edit [2]: 45.41% | Avg % Insert [2]: 40.05% | # Sites (off-target integration sites detected) [3]: 2

CUUCUCUACACCCAGGGCAC (tested as dual guide RNA, chemistry not given here) [CR003342]
Avg % Deletion [1]: 44.66% | Avg % Edit [1]: 45.14% | Avg % Insert [1]: 1.23% | Avg % Deletion [2]: 0.28% | Avg % Edit [2]: 11.06% | Avg % Insert [2]: 10.78% | # Sites (off-target integration sites detected) [3]: 0

GGGAUUGGUGACGACAGCCG (tested as dual guide RNA, chemistry not given here) [CR003390]
Avg % Deletion [1]: 16.49% | Avg % Edit [1]: 18.97% | Avg % Insert [1]: 3.31% | Avg % Deletion [2]: 2.44% | Avg % Edit [2]: 24.88% | Avg % Insert [2]: 22.44% | # Sites (off-target integration sites detected) [3]: 1

CCGUGGUGGAAUAGGAGUAG (tested as dual guide RNA, chemistry not given here) [CR003386]
Avg % Deletion [1]: 69.34% | Avg % Edit [1]: 69.40% | Avg % Insert [1]: 0.53% | Avg % Deletion [2]: 0.56% | Avg % Edit [2]: 2.71% | Avg % Insert [2]: 2.15% | # Sites (off-target integration sites detected) [3]: 1

GCCGUGGUGGAAUAGGAGUA (tested as dual guide RNA, chemistry not given here) [CR003387]
Avg % Deletion [1]: 25.55% | Avg % Edit [1]: 25.64% | Avg % Insert [1]: 0.23% | Avg % Deletion [2]: 0.12% | Avg % Edit [2]: 1.39% | Avg % Insert [2]: 1.27% | # Sites (off-target integration sites detected) [3]: 6

AUUGGUGACGACAGCCGUGG (tested as dual guide RNA, chemistry not given here) [CR003389]
Avg % Deletion [1]: 50.90% | Avg % Edit [1]: 62.32% | Avg % Insert [1]: 13.19% | Avg % Deletion [2]: 4.57% | Avg % Edit [2]: 31.84% | Avg % Insert [2]: 27.27% | # Sites (off-target integration sites detected) [3]: 2

AUACCAGUCCAGCAAGGCAG (tested as dual guide RNA, chemistry not given here) [CR003338]
Avg % Deletion [1]: 67.06% | Avg % Edit [1]: 75.64% | Avg % Insert [1]: 10.22% | Avg % Deletion [2]: 2.60% | Avg % Edit [2]: 68.00% | Avg % Insert [2]: 65.40% | # Sites (off-target integration sites detected) [3]: 2

AGUCCCUCAUUCCUUGGGAU (tested as dual guide RNA, chemistry not given here) [CR003392]
Avg % Deletion [1]: 26.98% | Avg % Edit [1]: 28.37% | Avg % Insert [1]: 1.93% | Avg % Deletion [2]: 0.33% | Avg % Edit [2]: 14.64% | Avg % Insert [2]: 14.32% | # Sites (off-target integration sites detected) [3]: 0
